Measurements reported in publication PMC10850145, “Hormonal steroids induce multidrug resistance and stress response genes in Neisseria gonorrhoeae by binding to MtrR” (Nature Communications, 2024).
Several values for one entry are separate records, joined by “and”; a condition that tells them apart may be missing. Equal entries are not always repeated. Where two headings read alike, the source gives them in different places.

What was measured:
FA19-rpoH-lacZ = test: Gonococcal growth in liquid culture (GC broth) with hormones (Fig S7); conditions: 6.82 hr
[1] = test system: mutant strain JF1 (ΔmtrR); test: Antimicrobial susceptibility spot assay with hormone plus antibiotic, JF1 (ΔmtrR); format: cell-based, Neisseria gonorrhoeae; conditions: derivative lacking MtrR (JF1), azithromycin
Procedure: (§1) Fig. 5 Effect of steroidal hormones on gonococcal antimicrobial susceptibility.
(§2) To determine the minimal inhibitory concentrations (MICs) by the steroidal hormones and their effect on antimicrobial susceptibility, 5 x 10^5 CFU and 1:5 serial dilutions of gonococcal strains were spotted on GC agar plates containing different concentrations of antibiotics and/or hormones as indicated. Antimicrobial susceptibility was assessed after 24 h incubation.

lptA-lacZ expression = test: β-galactosidase assay, lptA-lacZ fusion (negative control gene); conditions: WT-lptA-lacZ
ngo1249-lacZ expression = test: β-galactosidase assay, ngo1249-lacZ fusion (negative control gene); conditions: WT-NGO1249-lacZ
wild type FA19 = test: Antimicrobial susceptibility spot assay with hormone plus azithromycin or polymyxin B, wild type FA19; format: cell-based, Neisseria gonorrhoeae; conditions: wild-type FA19, GC agar, 24 h, visual
Procedure: as §1, §2

rpoH-lacZ expression = format: cell-based, Neisseria gonorrhoeae; conditions: for Miller units, single well: individual replicate; for Miller units, Mean: mean of 4 wells; for Miller units / β-galactosidase activity (Miller units): rpoH-lacZ, single replicate
[2] = 6.25 µM hormone, plate columns 1-6 (WT)
[3] = 6.25 µM hormone, plate columns 7-12 (second strain, not WT)
[4] = 12.5 µM hormone, plate columns 1-6 (WT)
[5] = 12.5 µM hormone, plate columns 7-12 (second strain, not WT)
[6] = 25 µM hormone, plate columns 1-6 (WT)
[7] = 25 µM hormone, plate columns 7-12 (second strain, not WT)
[8] = 50 µM hormone, plate columns 1-6 (WT)
[9] = 50 µM hormone, plate columns 7-12 (second strain, not WT)
[10] = ΔmtrR + mtrR D171A in trans, 6.25 µM hormone
[11] = ΔmtrR + mtrR D171A in trans, 12.5 µM hormone
[12] = ΔmtrR + mtrR D171A in trans, 25 µM hormone
[13] = ΔmtrR + mtrR D171A in trans, 50 µM hormone

CC(=O)[C@H]1CC[C@H]2[C@@H]3CCC4=CC(=O)CC[C@]4(C)[C@H]3CC[C@]12C [Progesterone, progesterone]
growth curve reading after BLANKING (FA19-rpoH-lacZ; 1 µM): 0.112 | growth curve reading after BLANKING (FA19-rpoH-lacZ; 10 µM): 0.091 | growth curve reading, raw replicates (FA19-rpoH-lacZ; 10 µM): 0.126 and 0.123 | growth curve reading after BLANKING (FA19-rpoH-lacZ; 25 µM): 0.109 | growth curve reading after BLANKING (FA19-rpoH-lacZ; 50 µM): 0.083 | growth curve reading, raw replicates (FA19-rpoH-lacZ; 50 µM): 0.114 and 0.119 | change in antibiotic resistance in presence of sub-lethal hormone [1]: did not show change | Mean Miller units (lptA-lacZ expression; 0.1 µM hormone): 10 Miller units | Mean Miller units (lptA-lacZ expression; 1 µM hormone): 13 Miller units | Mean Miller units (lptA-lacZ expression; 10 µM hormone): 13 Miller units | Mean Miller units (lptA-lacZ expression; 50 µM hormone): 10 Miller units | Mean Miller units (lptA-lacZ expression; 100 µM hormone): 12 Miller units | Mean Miller units (ngo1249-lacZ expression; 0.1 µM hormone): 5 Miller units | Mean Miller units (ngo1249-lacZ expression; 1 µM hormone): 8 Miller units | Mean Miller units (ngo1249-lacZ expression; 10 µM hormone): 8 Miller units | Mean Miller units (ngo1249-lacZ expression; 50 µM hormone): 6.43 Miller units | Mean Miller units (ngo1249-lacZ expression; 100 µM hormone): 6.923 Miller units | resistance to azithromycin in presence of sub-lethal hormone (wild type FA19): elevated levels of resistance | Miller units, single well (rpoH-lacZ expression; [2]): 42 Miller units and 34 Miller units and 33 Miller units | Miller units, Mean (rpoH-lacZ expression; [2]): 35 Miller units | Miller units, single well (rpoH-lacZ expression; [3]): 87 Miller units and 84 Miller units and 94 Miller units and 85 Miller units | Miller units, Mean (rpoH-lacZ expression; [3]): 87 Miller units | Miller units, single well (rpoH-lacZ expression; [4]): 35 Miller units and 36 Miller units and 31 Miller units and 38 Miller units | Miller units, Mean (rpoH-lacZ expression; [4]): 35 Miller units | Miller units, single well (rpoH-lacZ expression; [5]): 87 Miller units and 78 Miller units and 71 Miller units and 77 Miller units | Miller units, Mean (rpoH-lacZ expression; [5]): 78 Miller units | Miller units, single well (rpoH-lacZ expression; [6]): 60 Miller units and 61 Miller units and 39 Miller units and 59 Miller units | Miller units, Mean (rpoH-lacZ expression; [6]): 55 Miller units | Miller units, single well (rpoH-lacZ expression; [7]): 95 Miller units and 81 Miller units and 89 Miller units and 80 Miller units | Miller units, Mean (rpoH-lacZ expression; [7]): 86 Miller units | Miller units, single well (rpoH-lacZ expression; [8]): 66 Miller units and 65 Miller units and 44 Miller units | Miller units, Mean (rpoH-lacZ expression; [8]): 60 Miller units | Miller units, single well (rpoH-lacZ expression; [9]): 64 Miller units and 60 Miller units and 72 Miller units and 71 Miller units | Miller units, Mean (rpoH-lacZ expression; [9]): 67 Miller units | induction of rpoH expression (rpoH-lacZ expression; complemented (MtrR+) strains, increasing hormone): could be induced | induction of rpoH expression (rpoH-lacZ expression; loss of MtrR or MtrR-D171A strain): abrogated | Miller units (rpoH-lacZ expression; [10]): 94 Miller units | β-galactosidase activity (Miller units) (rpoH-lacZ expression; [10]): 87 Miller units and 84 Miller units and 85 Miller units | Miller units (rpoH-lacZ expression; [11]): 71 Miller units | β-galactosidase activity (Miller units) (rpoH-lacZ expression; [11]): 87 Miller units and 78 Miller units and 77 Miller units | Miller units (rpoH-lacZ expression; [12]): 89 Miller units | β-galactosidase activity (Miller units) (rpoH-lacZ expression; [12]): 95 Miller units and 81 Miller units and 80 Miller units | Miller units (rpoH-lacZ expression; [13]): 72 Miller units | β-galactosidase activity (Miller units) (rpoH-lacZ expression; [13]): 64 Miller units and 60 Miller units and 71 Miller units | β-galactosidase activity (Miller units) (rpoH-lacZ expression; ΔmtrR + mtrR WT in trans, 6.25 µM hormone): 42 Miller units and 34 Miller units and 33 Miller units | β-galactosidase activity (Miller units) (rpoH-lacZ expression; ΔmtrR + mtrR WT in trans, 12.5 µM hormone): 35 Miller units and 36 Miller units and 31 Miller units and 38 Miller units | β-galactosidase activity (Miller units) (rpoH-lacZ expression; ΔmtrR + mtrR WT in trans, 25 µM hormone): 60 Miller units and 61 Miller units and 39 Miller units and 59 Miller units | β-galactosidase activity (Miller units) (rpoH-lacZ expression; ΔmtrR + mtrR WT in trans, 50 µM hormone): 66 Miller units and 65 Miller units and 44 Miller units | β-galactosidase activity (Miller units) (rpoH-lacZ expression; ΔmtrR strain, 6.25 µM hormone): 315 Miller units and 172 Miller units and 146 Miller units | β-galactosidase activity (Miller units) (rpoH-lacZ expression; ΔmtrR strain, 12.5 µM hormone): 228 Miller units and 142 Miller units and 163 Miller units | β-galactosidase activity (Miller units) (rpoH-lacZ expression; ΔmtrR strain, 25 µM hormone): 253 Miller units and 160 Miller units and 118 Miller units | β-galactosidase activity (Miller units) (rpoH-lacZ expression; ΔmtrR strain, 50 µM hormone): 186 Miller units and 118 Miller units and 96 Miller units | Miller units (rpoH-lacZ expression; ΔmtrR, 6.25 µM hormone): 180 Miller units | Miller units (rpoH-lacZ expression; ΔmtrR, 12.5 µM hormone): 168 Miller units | Miller units (rpoH-lacZ expression; ΔmtrR, 25 µM hormone): 170 Miller units | Miller units (rpoH-lacZ expression; ΔmtrR, 50 µM hormone): 138 Miller units | β-galactosidase activity, rpoH-lacZ, Mean (rpoH-lacZ expression; strain WT (FA19/pLES94-rpoH), hormone 6.25 µM): 66 Miller units | β-galactosidase activity, rpoH-lacZ, Mean (rpoH-lacZ expression; strain WT (FA19/pLES94-rpoH), hormone 12.5 µM): 79 Miller units | β-galactosidase activity, rpoH-lacZ, Mean (rpoH-lacZ expression; strain WT (FA19/pLES94-rpoH), hormone 50 µM): 136 Miller units | activation of rpoH (rpoH-lacZ expression; strain producing MtrR R176E): almost no activation | β-galactosidase activity, rpoH-lacZ, Mean (rpoH-lacZ expression; strain ΔmtrR (FA19 ∆mtrR/pLES94-rpoH), hormone 6.25 µM): 203 Miller units | β-galactosidase activity, rpoH-lacZ, Mean (rpoH-lacZ expression; strain ΔmtrR (FA19 ∆mtrR/pLES94-rpoH), hormone 12.5 µM): 175 Miller units | β-galactosidase activity, rpoH-lacZ, Mean (rpoH-lacZ expression; strain ΔmtrR (FA19 ∆mtrR/pLES94-rpoH), hormone 25 µM): 175 Miller units | β-galactosidase activity, rpoH-lacZ, Mean (rpoH-lacZ expression; strain ΔmtrR (FA19 ∆mtrR/pLES94-rpoH), hormone 50 µM): 134 Miller units | β-galactosidase activity, rpoH-lacZ, Mean (rpoH-lacZ expression; strain ΔmtrR + mtrR D171A (pGCC3-mtrR D171A), hormone 6.25 µM): 87 Miller units | β-galactosidase activity, rpoH-lacZ, Mean (rpoH-lacZ expression; strain ΔmtrR + mtrR D171A (pGCC3-mtrR D171A), hormone 12.5 µM): 78 Miller units | β-galactosidase activity, rpoH-lacZ, Mean (rpoH-lacZ expression; strain ΔmtrR + mtrR D171A (pGCC3-mtrR D171A), hormone 25 µM): 86 Miller units | β-galactosidase activity, rpoH-lacZ, Mean (rpoH-lacZ expression; strain ΔmtrR + mtrR D171A (pGCC3-mtrR D171A), hormone 50 µM): 67 Miller units | β-galactosidase activity, rpoH-lacZ, Mean (rpoH-lacZ expression; strain ΔmtrR + mtrR WT (pGCC3-mtrR), hormone 6.25 µM): 35 Miller units | β-galactosidase activity, rpoH-lacZ, Mean (rpoH-lacZ expression; strain ΔmtrR + mtrR WT (pGCC3-mtrR), hormone 12.5 µM): 35 Miller units | β-galactosidase activity, rpoH-lacZ, Mean (rpoH-lacZ expression; strain ΔmtrR + mtrR WT (pGCC3-mtrR), hormone 25 µM): 55 Miller units | β-galactosidase activity, rpoH-lacZ, Mean (rpoH-lacZ expression; strain ΔmtrR + mtrR WT (pGCC3-mtrR), hormone 50 µM): 60 Miller units
